Experimental data from patent publication US11566002B2, “Substituted tetrahydrocyclopenta[C]pyrroles, substituted dihydropyrrolizines, analogues thereof, and methods using same” (priority 2018, dated 2023).

test system: HBV rcDNA; test: HepDE19 assay with bDNA quantitation of HBV rcDNA; type: cell-based, hepatitis B virus; settings: HepDE19 cells, Tet-free medium, 7 day-incubation, rcDNA measured by Quantigene 2.0 bDNA assay, top concentration 25 μM; read-out: DE-19 bDNA EC50
Method: HepDE19 Assay with bDNA Quantitation of HBV rcDNA:
HepDE19 cell culture system is a HepG2 (human hepatocarcinoma) derived cell line that supports HBV DNA replication and cccDNA formation in a tetracycline (Tet)-regulated manner and produces HBV rcDNA and a detectable reporter molecule dependent on the production and maintenance of cccDNA (Guo, et al., 2007, J. Virol. 81:12472-12484).
HepDE19 (50,000 cells/well) were plated in 96-well collagen-coated tissue-culture treated microtiter plates in DMEM/F12 medium supplemented with 10% fetal bovine serum, 1% penicillin-streptomycin and 1 μg/mL tetracycline and incubated in a humidified incubator at 37° C. and 5% CO2 overnight. Next day, the cells were switched to fresh medium without tetracycline and incubated for 4 hours at 37° C. and 5% CO2. The cells were treated with fresh Tet-free medium with compounds at concentrations starting at 25 μM and a serial, ½ log, 8-point, titration series in duplicate. The final DMSO concentration in the assay was 0.5%. The plates were incubated for 7 days in a humidified incubator at 37° C. and 5% CO2. Following a 7 day-incubation, the level of rcDNA present in the inhibitor-treated wells was measured using a Quantigene 2.0 bDNA assay kit (Affymetrix, Santa Clara, Calif.) with HBV specific custom probe set and manufacturers instructions. Concurrently, the effect of compounds on cell viability was assessed using replicate plates, plated at a density of 5,000 cells/well and incubated for 4 days, to determine the ATP content as a measure of cell viability using the cell-titer glo reagent (CTG; Promega Corporation, Madison, Wis.) as per manufacturer's instructions. The plates were read using a Victor luminescence plate reader (PerkinElmer Model 1420 Multilabel counter) and the relative luminescence units (RLU) data generated from each well was calculated as % inhibition of the untreated control wells and analyzed using XL-Fit module in Microsoft Excel to determine EC50 and EC90 (bDNA) and CC50 (CTG) values using a 4-parameter curve fitting algorithm.
Representative compounds of the invention were tested for their abilities to inhibit formation of relaxed circular DNA (rcDNA) in a HepDE19 assay, as described elsewhere herein.

**Q.** Which EC50 does the source give for `Cn1cnc(COC(=O)NC2CCc3c2c(C2CCC2)n(C)c3C(=O)Nc2ccc(F)c(Cl)c2)n1` (single isomer, unassigned) [Compound 97, (1-Methyl-1H-1,2,4-triazol-3-yl)methyl (1-((3-chloro-4-fluorophenyl)carbamoyl)-3-cyclobutyl-2-methyl-2,4,5,6-tetrahydrocyclopenta[c]pyrrol-4-yl)carbamate] here?
**A.** ≥ 25 µM

**Q.** Which EC50 does the source give for `Cn1cc2c(c1C(=O)Nc1ccc(F)c(Cl)c1)CCCC2NS(=O)(=O)C1CC1` (single isomer, unassigned) [Compound 30, N-(3-Chloro-4-fluorophenyl)-4-(cyclopropanesulfonamido)-2-methyl-4,5,6,7-tetrahydro-2H-isoindole-1-carboxamide] here?
**A.** 2.1 µM

**Q.** For `Cc1c2c(c(C(=O)Nc3ccc(F)c(Cl)c3)n1C)CCCC2NC(=O)OCc1ncn(C)n1` (single isomer, unassigned) [Compound 93, (1-Methyl-1H-1,2,4-triazol-3-yl)methyl (1-((3-chloro-4-fluorophenyl)carbamoyl)-2,3-dimethyl-4,5,6,7-tetrahydro-2H-isoindol-4-yl)carbamate], which EC50 is on record?
**A.** 0.95 µM

**Q.** Which EC50 does the source give for `Cn1cc2c(c1C(=O)Nc1ccc(F)c(Cl)c1)CCC2NC(=O)OCc1cnco1` (single isomer, unassigned) [Compound 36, Oxazol-5-ylmethyl (1-((3-chloro-4-fluorophenyl)carbamoyl)-2-methyl-2,4,5,6-tetrahydrocyclopenta[c]pyrrol-4-yl)carbamate] here?
**A.** 0.02 µM

**Q.** How did the EC50 turn out when `Cn1c(Cl)c2c(c1C(=O)Nc1ccc(F)c(Cl)c1)CCCC2NC(=O)OCc1cn[nH]n1` (single isomer, unassigned) [Compound 137, (2H-1,2,3-Triazol-4-yl)methyl (3-chloro-1-((3-chloro-4-fluorophenyl)carbamoyl)-2-methyl-4,5,6,7-tetrahydro-2H-isoindol-4-yl)carbamate] was run?
**A.** 0.16 µM

**Q.** Which EC50 does the source give for `Cn1cnc(COC(=O)NC2CCc3c2c(C2CCC2)n(C)c3C(=O)Nc2ccc(F)c(Cl)c2)n1` (single isomer, unassigned) [Compound 96, (1-Methyl-1H-1,2,4-triazol-3-yl)methyl (1-((3-chloro-4-fluorophenyl)carbamoyl)-3-cyclobutyl-2-methyl-2,4,5,6-tetrahydrocyclopenta[c]pyrrol-4-yl)carbamate] here?
**A.** 0.42 µM

**Q.** `Cn1c(C(=O)Nc2ccc(F)c(Cl)c2)c2c(c1C1CC1)C(NC(=O)OCc1nc[nH]n1)CC2` (single isomer, unassigned) [Compound 99, (1H-1,2,4-Triazol-3-yl)methyl (1-((3-chloro-4-fluorophenyl)carbamoyl)-3-cyclopropyl-2-methyl-2,4,5,6-tetrahydrocyclopenta[c]pyrrol-4-yl)carbamate] was tested. Which EC50 did it give?
**A.** 0.33 µM

**Q.** Which EC50 does the source give for `Cn1nnc(COC(=O)NC2CCc3c2cn(C)c3C(=O)Nc2ccc(F)c(Cl)c2)n1` (centres unmarked) [Compound 143, (2-Methyl-1H-tetrazol-5-yl)methyl(1-((3-chloro-4-fluorophenyl)carbamoyl)-2-methyl-2,4,5,6-tetrahydrocyclopenta[c]pyrrol-4-yl)carbamate] here?
**A.** 0.07 µM

**Q.** For `Cn1cc2c(c1C(=O)Nc1ccc(F)c(Cl)c1)CCC2NC(=O)OCc1ncco1` (single isomer, unassigned) [Compound 34, Oxazol-2-ylmethyl (1-((3-chloro-4-fluorophenyl)carbamoyl)-2-methyl-2,4,5,6-tetrahydrocyclopenta[c]pyrrol-4-yl)carbamate], which EC50 is on record?
**A.** 0.08 µM

**Q.** For `Cc1n[nH]nc1COC(=O)NC1CCc2c1cn(C)c2C(=O)Nc1ccc(F)c(Cl)c1` (single isomer, unassigned) [Compound 138, (5-Methyl-2H-1,2,3-triazol-4-yl)methyl (1-((3-chloro-4-fluorophenyl)carbamoyl)-2-methyl-2,4,5,6-tetrahydrocyclopenta[c]pyrrol-4-yl)carbamate], which EC50 is on record?
**A.** 0.86 µM

same assay, conditions: Hepatitis B virus, HepDE19, 168 h, HepDE19 cells, Tet-free medium, 7 day-incubation, rcDNA measured by Quantigene 2.0 bDNA assay, top concentration 25 μM; read-out: DE-19 bDNA EC50

**Q.** With `Cc1c2c(c(C(=O)Nc3ccc(F)c(Cl)c3)n1C)CCCC2NC(=O)OCc1ncn(C)n1` (single isomer, unassigned) [Compound 92, (1-Methyl-1H-1,2,4-triazol-3-yl)methyl (1-((3-chloro-4-fluorophenyl)carbamoyl)-2,3-dimethyl-4,5,6,7-tetrahydro-2H-isoindol-4-yl)carbamate] as the compound, how does the EC50 read?
**A.** 0.53 µM

**Q.** How did the EC50 turn out when `Cn1cc2c(c1C(=O)Nc1ccc(F)c(Cl)c1)CCCC2NC(=O)OCc1nc[nH]n1` (single isomer, unassigned) [Compound 88, (1H-1,2,4-Triazol-3-yl)methyl (1-((3-chloro-4-fluorophenyl)carbamoyl)-2-methyl-4,5,6,7-tetrahydro-2H-isoindol-4-yl)carbamate] was run?
**A.** 0.51 µM

**Q.** Which EC50 does the source give for `Cn1cc2c(c1C(=O)Nc1ccc(F)c(Cl)c1)CCCC2NC(=O)C1CC1` (single isomer, unassigned) [Compound 76, N-(3-chloro-4-fluorophenyl)-4-(cyclopropanecarboxamido)-2-methyl-4,5,6,7-tetrahydro-2H-isoindole-1-carboxamide] here?
**A.** 1 µM

**Q.** For `Cn1cnc(COC(=O)NC2CCc3c2cn(C)c3C(=O)Nc2ccc(F)c(C#N)c2)n1` (single isomer, unassigned) [Compound 67, (1-methyl-1H-1,2,4-triazol-3-yl)methyl (1-((3-cyano-4-fluorophenyl)carbamoyl)-2-methyl-2,4,5,6-tetrahydrocyclopenta[c]pyrrol-4-yl)carbamate], which EC50 is on record?
**A.** 0.06 µM

**Q.** With `Cc1cc(NC(=O)c2c3c(cn2C)C(NC(=O)OCc2ncn(C)n2)CC3)ccc1F` (single isomer, unassigned) [Compound 62, (1-methyl-1H-1,2,4-triazol-3-yl)methyl (1-((4-fluoro-3-methylphenyl)carbamoyl)-2-methyl-2,4,5,6-tetrahydrocyclopenta[c]pyrrol-4-yl)carbamate] as the compound, how does the EC50 read?
**A.** 0.09 µM

**Q.** With `Cn1cc2c(c1C(=O)Nc1ccc(F)c(Cl)c1)CCC2=O` [Compound 44, N-(3-chloro-4-fluorophenyl)-2-methyl-4-oxo-2,4,5,6-tetrahydrocyclopenta[c]pyrrole-1-carboxamide] as the compound, how does the EC50 read?
**A.** 19 µM

**Q.** `Cn1cc2c(c1C(=O)Nc1ccc(F)c(Cl)c1)CCC2NC(=O)OCc1ccn(C2CCCCO2)n1` (centres unmarked) [Compound 63, (1-(Tetrahydro-2H-pyran-2-yl)-1H-pyrazol-3-yl)methyl (1-((3-chloro-4-fluorophenyl)carbamoyl)-2-methyl-2,4,5,6-tetrahydrocyclopenta[c]pyrrol-4-yl)carbamate] was tested. Which EC50 did it give?
**A.** 0.14 µM

same assay, conditions: Hepatitis B virus, HepDE19, 168 h, read-out: DE-19 bDNA EC50 (μM), HepDE19 cells, Tet-free medium, 7 day-incubation, rcDNA measured by Quantigene 2.0 bDNA assay, top concentration 25 μM

**Q.** With `COC(=O)NC1CCc2c1cn(C)c2C(=O)Nc1ccc(F)c(Cl)c1` (racemic) [Compound 1, methyl 1-(3-chloro-4-fluorophenylcarbamoyl)-2-methyl-2,4,5,6-tetrahydrocyclopenta[c]pyrrol-4-ylcarbamate] as the compound, how does the EC50 read?
**A.** 0.09 µM

same assay, conditions: read-out: DE-19 bDNA EC50; HepDE19 cells, Tet-free medium, 7 day-incubation, rcDNA measured by Quantigene 2.0 bDNA assay, top concentration 25 μM

**Q.** With `Cn1cc2c(c1C(=O)Nc1ccc(F)c(Cl)c1)CCC2NC(=O)OCc1nn[nH]n1` (single isomer, unassigned) [Compound 149, (2H-Tetrazol-5-yl)methyl(1-((3-chloro-4-fluorophenyl)carbamoyl)-2-methyl-2,4,5,6-tetrahydrocyclopenta[c]pyrrol-4-yl)carbamate] as the compound, how does the EC50 read?
**A.** 1.1 µM

**Q.** With `Cn1ccc(COC(=O)NC2CCc3c2cn(C)c3C(=O)Nc2ccc(F)c(Cl)c2)n1` (single isomer, unassigned) [Compound 22, (1-Methyl-1H-pyrazol-3-yl)methyl(1-((3-chloro-4-fluorophenyl)carbamoyl)-2-methyl-2,4,5,6-tetrahydrocyclopenta[c]pyrrol-4-yl)carbamate] as the compound, how does the EC50 read?
**A.** 0.78 µM

**Q.** Which EC50 does the source give for `COC(=O)NC1CCn2c(C(=O)Nc3ccc(F)c(Cl)c3)ccc21` (single isomer, unassigned) [Compound 38, Methyl (5-((3-chloro-4-fluorophenyl)carbamoyl)-2,3-dihydro-1H-pyrrolizin-1-yl)carbamate] here?
**A.** 4.7 µM

**Q.** For `COC(=O)NC1CCn2c(C(=O)Nc3ccc(F)c(Cl)c3)ccc21` (single isomer, unassigned) [Compound 39, Methyl (5-((3-chloro-4-fluorophenyl)carbamoyl)-2,3-dihydro-1H-pyrrolizin-1-yl)carbamate], which EC50 is on record?
**A.** 15 µM

**Q.** With `COC(=O)NC1CCc2c1cn(C)c2C(=O)Nc1ccc(F)c(Cl)c1` (single isomer, unassigned) [Compound 4, Methyl 1-(3-chloro-4-fluorophenylcarbamoyl)-2-methyl-2,4,5,6-tetrahydrocyclopenta[c] pyrrol-4-ylcarbamate] as the compound, how does the EC50 read?
**A.** 0.05 µM
